The test has as its target GLP-1 Receptor (Homo sapiens, UniProt P43220). Kind of test: GLP-1R agonist cAMP stimulation assay (HEK293/GLP1R/CRE-LUC cells, Cisbio cAMP dynamic 2 kit). To be noted: Table 3, HEK293/GLP1R/CRE-LUC cells, 30 min. The class given is cell-based. Here is the method:
Activation of GLP-1 receptor is known to stimulate cyclic AMP (cAMP) production in cells which indicates primary coupling to the G as subunit of the G protein heterotrimeric complex.
To optimize functional activity directed toward G as coupling, a HEK293/CRE-Luc cell line developed by HDB stably expressing the GLP-1 Receptor was used. 200× concentration of compound working solutions were prepared (Agilent Technologies Bravo) with ½ log serial dilution in 384-well Echo LDV plate (Labcyte, CatOLP-0200). 50 nL/well 200× concentration of compound working solutions were moved to 384-well white low volume plate (Greiner, Cat4784075) using Labcyte ECH0550.1×10^5 cells/mL HEK293/GLP1R/CRE-LUC (HD Biosciences) cell suspensions prepared with assay buffer (DPBS containing 0.5 mM IBMX (Sigma, Cat15879) and 0.10 BSA (GENVIEW, Cat4FA016-100g)), 10 uL cell suspensions were added to each well of previous generated assay plate which already contains 50 n^1 compound at 200 xconcentration using ThermioFisher Multidrop Combi (1000 cells/well). Seal the plate and incubate at 37 with […] for 30 m.
After incubation the cAMP assay signal was generated using cAMP dynamic 2 Kit (Cisbio). 5 μL cAMP-d2 working solution was added to each well, followed with 5 L Anti-cAMP antibody-cryptate working solution added to each well using ThermoFisher Multidrop Combi. Incubate at room temperature for 1 hour protected from light. Read the fluorescence at 665 and 615 nm with Reader PerkinElmer EnVision. % oActivity=100%×(mean RLU of test sample−mean RLU of vehicle control)/(mean RLU of MAX control−mean RLU of vehicle control)
GLP-1 Receptor, sequence (P43220 24-463, species assumed): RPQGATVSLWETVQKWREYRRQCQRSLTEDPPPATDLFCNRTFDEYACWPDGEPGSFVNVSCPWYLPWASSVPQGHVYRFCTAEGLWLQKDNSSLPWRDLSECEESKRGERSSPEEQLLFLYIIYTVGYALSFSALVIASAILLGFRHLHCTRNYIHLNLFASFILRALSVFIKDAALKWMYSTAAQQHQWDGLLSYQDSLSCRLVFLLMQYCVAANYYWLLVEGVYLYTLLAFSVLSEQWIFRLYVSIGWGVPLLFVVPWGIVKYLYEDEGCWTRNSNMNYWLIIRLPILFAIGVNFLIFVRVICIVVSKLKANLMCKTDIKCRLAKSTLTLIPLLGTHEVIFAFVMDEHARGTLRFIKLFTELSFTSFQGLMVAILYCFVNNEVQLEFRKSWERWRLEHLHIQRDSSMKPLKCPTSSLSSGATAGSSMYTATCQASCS
Turning to `CC1=Cc2cc(-n3ccn(-c4c5c(nn4-c4cc(C)c(F)c(C)c4)CCN(C(=O)c4cc6cc([C@H]7CCOC(C)(C)C7)ccc6n4[C@@]4(c6noc(=O)[nH]6)C[C@@H]4C)[C@H]5C)c3=O)ccc2S(C)(=O)=N1` (single isomer, unassigned) [Compound 207], the EC50 (as a rule, the concentration giving half of the maximal effect) came out at 0.02 nM. In other words, the picomolar range. In the case of `CCN=S(=O)(c1ccc(-n2ccn(-c3c4c(nn3-c3cc(C)c(F)c(C)c3)CCN(C(=O)c3cc5cc([C@H]6CCOC(C)(C)C6)ccc5n3[C@@]3(c5noc(=O)[nH]5)C[C@@H]3C)[C@H]4C)c2=O)c(F)c1)C1CC1` (single isomer, unassigned) [Compound 208], the EC50 is 0.11 nM. `Cc1cc(-n2nc3c(c2-n2ccn(-c4ccc(S(=O)(=NC5CC5)C5CC5)cc4F)c2=O)[C@H](C)N(C(=O)c2cc4cc([C@H]5CCOC(C)(C)C5)ccc4n2[C@@]2(c4noc(=O)[nH]4)C[C@@H]2C)CC3)cc(C)c1F` (single isomer, unassigned) [Compound 209] returned an EC50 of 0.22 nM. `CC1=Cc2c(ccc(-n3ccn(-c4c5c(nn4-c4cc(C)c(F)c(C)c4)CCN(C(=O)c4cc6cc([C@H]7CCOC(C)(C)C7)ccc6n4[C@@]4(c6noc(=O)[nH]6)C[C@@H]4C)[C@H]5C)c3=O)c2F)S(=O)(C2CC2)=N1` (single isomer, unassigned) [Compound 210] had an EC50 of 0.067 nM. Against the preceding compound, the EC50 is about 3.3-fold lower. Regarding `CC1=Cc2c(ccc(-n3ccn(-c4c5c(nn4-c4cc(C)c(F)c(C)c4)CCN(C(=O)c4cc6cc([C@H]7CCOC(C)(C)C7)ccc6n4[C@@]4(c6noc(=O)[nH]6)C[C@@H]4C)[C@H]5C)c3=O)c2F)S(=O)(C2CC2)=N1` (single isomer, unassigned) [Compound 211], the EC50 came out at 0.041 nM. `Cc1cc(-n2nc3c(c2-n2ccn(-c4ccc5c(c4)CCCN=S5(=O)C4CC4)c2=O)[C@H](C)N(C(=O)c2cc4cc([C@H]5CCOC(C)(C)C5)ccc4n2[C@@]2(c4noc(=O)[nH]4)C[C@@H]2C)CC3)cc(C)c1F` (single isomer, unassigned) [Compound 212] showed a 50% effective concentration (EC50) of 0.038 nM. `Cc1cc(-n2nc3c(c2-n2ccn(-c4ccc5c(c4)CCCN=S5(=O)C4CC4)c2=O)[C@H](C)N(C(=O)c2cc4cc([C@H]5CCOC(C)(C)C5)ccc4n2[C@@]2(c4noc(=O)[nH]4)C[C@@H]2C)CC3)cc(C)c1F` (single isomer, unassigned) [Compound 213]: a half-maximal response (EC50) required 0.12 nM. Compared with the last compound, the EC50 is about 3.2-fold higher. As to `CN=S(=O)(c1ccc(-n2ccn(-c3c4c(nn3-c3cc(C)c(F)c(C)c3)CCN(C(=O)c3cc5cc([C@H]6CCOC(C)(C)C6)ccc5n3[C@@]3(c5noc(=O)[nH]5)C[C@@H]3C)[C@H]4C)c2=O)c(F)c1Cl)C1CC1` (single isomer, unassigned) [Compound 215], the midpoint of the response, the EC50, lay at 0.074 nM. In the case of `CN=S(=O)(c1ccc(-n2ccn(-c3c4c(nn3-c3ccc(F)c(C5CC5)c3)CCN(C(=O)c3cc5cc([C@H]6CCOC(C)(C)C6)ccc5n3[C@@]3(c5noc(=O)[nH]5)C[C@@H]3C)[C@H]4C)c2=O)c(F)c1C)C1CC1` (single isomer, unassigned) [Compound 217], the response was half-maximal at 0.2 nM (EC50). In the case of `CN=S(=O)(c1ccc(-n2ccn(-c3c4c(nn3-c3cc(C)c(F)c(C)c3)CCN(C(=O)c3cc5cc([C@H]6CCOC(C)(C)C6)ccc5n3[C@@]3(c5noc(=O)[nH]5)C[C@@H]3C)[C@H]4C)c2=O)c(F)c1C(C)C)C1CC1` (single isomer, unassigned) [Compound 219] it was 0.193 nM; in that of `CN=S(=O)(c1ccc(-n2ccn(-c3c4c(nn3-c3cc(C)c(F)c(C)c3)CCN(C(=O)c3cc5cc([C@H]6CCOC(C)(C)C6)ccc5n3[C@@]3(c5noc(=O)[nH]5)C[C@@H]3C)[C@H]4C)c2=O)c(F)c1C(C)C)C1CC1` (single isomer, unassigned) [Compound 220], 0.134 nM. In the case of `CN=S(=O)(c1ccc(-n2ccn(-c3c4c(nn3-c3cc(C)c(F)c(C)c3)CCN(C(=O)c3cc5cc(C6CCOCC6)ccc5n3[C@@]3(c5noc(=O)[nH]5)C[C@@H]3C)[C@H]4C)c2=O)c(F)c1)C1CC1` (single isomer, unassigned) [Compound 222] it was 0.084 nM; in that of `Cc1cc(-n2nc3c(c2-n2ccn(-c4ccc5c(c4)CCS(C)(=O)=N5)c2=O)[C@H](C)N(C(=O)c2cc4cc([C@H]5CCOC(C)(C)C5)ccc4n2[C@@]2(c4noc(=O)[nH]4)C[C@@H]2C)CC3)cc(C)c1F` (single isomer, unassigned) [Compound 228], 0.34 nM. Compound `Cc1cc(-n2nc3c(c2-n2ccn(-c4ccc5c(c4)CCS(C)(=O)=N5)c2=O)[C@H](C)N(C(=O)c2cc4cc([C@H]5CCOC(C)(C)C5)ccc4n2[C@@]2(c4noc(=O)[nH]4)C[C@@H]2C)CC3)cc(C)c1F` (single isomer, unassigned) [Compound 229] gave an EC50 of 0.042 nM. `Cc1cc(-n2nc3c(c2-n2ccn(-c4ccc5c(c4)C=CS(C)(=O)=N5)c2=O)[C@H](C)N(C(=O)c2cc4cc([C@H]5CCOC(C)(C)C5)ccc4n2[C@@]2(c4noc(=O)[nH]4)C[C@@H]2C)CC3)cc(C)c1F` (single isomer, unassigned) [Compound 230] had an EC50 of 0.048 nM. As to `Cc1cc(-n2nc3c(c2-n2ccn(-c4ccc5c(c4)C=CS(C)(=O)=N5)c2=O)[C@H](C)N(C(=O)c2cc4cc([C@H]5CCOC(C)(C)C5)ccc4n2[C@@]2(c4noc(=O)[nH]4)C[C@@H]2C)CC3)cc(C)c1F` (single isomer, unassigned) [Compound 231], the EC50 is 0.014 nM. In the case of `CN=S1(=O)CCC(Oc2ccc(-n3ccn(-c4c5c(nn4-c4cc(C)c(F)c(C)c4)CCN(C(=O)c4cc6cc(C7CCOCC7)ccc6n4[C@@]4(c6noc(=O)[nH]6)C[C@@H]4C)[C@H]5C)c3=O)c(F)c2C)CC1` (single isomer, unassigned) [Compound 232] it was 0.037 nM. Regarding `CN=S1(=O)CCC(Oc2ccc(-n3ccn(-c4c5c(nn4-c4cc(C)c(F)c(C)c4)CCN(C(=O)c4cc6cc(C7CCOCC7)ccc6n4[C@@]4(c6noc(=O)[nH]6)C[C@@H]4C)[C@H]5C)c3=O)c(F)c2C)CC1` (single isomer, unassigned) [Compound 233], the EC50 is 0.028 nM. Take `CN=S1(=O)CCC(Oc2ccc(-n3ccn(-c4c5c(nn4-c4cc(C)c(F)c(C)c4)CCN(C(=O)c4cc6cc(C7CCOCC7)ccc6n4[C@@]4(c6noc(=O)[nH]6)C[C@@H]4C)[C@H]5C)c3=O)cc2C(F)F)CC1` (single isomer, unassigned) [Compound 234]: the EC50 came to 0.058 nM. In the case of `CN=S1(=O)CCC(Oc2ccc(-n3ccn(-c4c5c(nn4-c4cc(C)c(F)c(C)c4)CCN(C(=O)c4cc6cc(C7CCOCC7)ccc6n4[C@@]4(c6noc(=O)[nH]6)C[C@@H]4C)[C@H]5C)c3=O)cc2C(F)F)CC1` (single isomer, unassigned) [Compound 235] it was 0.057 nM; in that of `CN=S1(=O)CCC(Oc2ccc(-n3ccn(-c4c5c(nn4-c4cc(C)c(F)c(C)c4)CCN(C(=O)c4cc6cc([C@H]7CCOC(C)(C)C7)ccc6n4[C@@]4(c6noc(=O)[nH]6)C[C@@H]4C)[C@H]5C)c3=O)cc2C2CC2)CC1` (single isomer, unassigned) [Compound 236], 0.053 nM. The compound `Cc1cc(-n2nc3c(c2-n2ccn(-c4ccc5c(c4)CCS5(=N)=O)c2=O)[C@H](C)N(C(=O)c2cc4cc(C5CCOCC5)ccc4n2[C@@]2(c4noc(=O)[nH]4)C[C@@H]2C)CC3)cc(C)c1F` (stereo partly drawn) [Compound 101, 3-[(1S,2S)-1-(2-{[(4S)-3-[3-(1-azanylidene-l-oxo-2,3-dihydro-1λ^6-benzo[b]thiophen-5-yl)-2-oxoimidazol-1-yl]-2-(4-fluoro-3,5-dimethylphenyl)-4-methyl-4,5,6,7-tetrahydropyrazolo[4,3-c]pyridin-5-yl]carbonyl}-5-(3,4,5,6-tetrahydro-2H-pyran-4-yl)indol-1-yl)-2-methylcyclopropyl]-4H,5H-1,2,4-oxadiazol-5-one] registered a concentration giving a half-maximal response (EC50) of 0.067 nM. Turning to `Cc1cc(-n2nc3c(c2-n2ccn(-c4ccc(S(C)(=N)=O)nc4)c2=O)[C@H](C)N(C(=O)c2cc4cc(C5CCOCC5)ccc4n2[C@@]2(c4noc(=O)[nH]4)C[C@@H]2C)CC3)cc(C)c1F` (stereo partly drawn) [Compound 102, 3-[(1S,2S)-1-(2-{[(4S)-3-(3-{6-[azanylidene(methyl)(oxo)-λ^6-sulfanyl]pyridin-3-yl}-2-oxoimidazol-1-yl)-2-(4-fluoro-3,5-dimethylphenyl)-4-methyl-4,5,6,7-tetrahydropyrazolo[4,3-c]pyridin-5-yl]carbonyl}-5-(3,4,5,6-tetrahydro-2H-pyran-4-yl)indol-1-yl)-2-methylcyclopropyl]-4H,5H-1,2,4-oxadiazol-5-one], the EC50 stood at 0.17 nM. This EC50 lies about 2.5-fold higher than the previous one. In the case of `Cc1cc(-n2nc3c(c2N2CCN(c4ccc(S(C)(=N)=O)cc4)C2=O)[C@H](C)N(C(=O)c2cc4cc(C5CCOCC5)ccc4n2[C@@]2(c4noc(=O)[nH]4)C[C@@H]2C)CC3)cc(C)c1F` (stereo partly drawn) [Compound 103, 3-[(1S,2S)-1-(2-{[(4S)-3-(3-{4-[azanylidene(methyl)(oxo)-λ^6-sulfanyl]phenyl}-2-oxotetrahydro-1H-imidazol-1-yl)-2-(4-fluoro-3,5-dimethylphenyl)-4-methyl-4,5,6,7-tetrahydropyrazolo[4,3-c]pyridin-5-yl]carbonyl}-5-(3,4,5,6-tetrahydro-2H-pyran-4-yl)indol-1-yl)-2-methylcyclopropyl]-4H,5H-1,2,4-oxadiazol-5-one] it was 0.14 nM.

The record behind these values is US12291529B2, “Heterocyclic GLP-1 agonists” (Gasherbrum Bio, Inc., priority 2023, dated 2025).
